# In patent US20090093069A1, “Topiramate Immunoassays” (ARK Diagnostics, Inc., priority 2007, published 2009):
# Where two headings read alike, the source gives them in different places.
# Key:
# [1] = tested on: rabbit polyclonal antibody #11341; test: ARK homogeneous enzyme immunoassay, topiramate calibration curve on HITACHI 917; format: binding; conditions: conjugate 12-G6PDH
# Protocol: Rabbit polyclonal antibody […] was used to generate a calibration curve, and evaluate assay precision, accuracy and specificity. The antibody was added into the antibody diluent to prepare the antibody reagent. The antibody reagent consists of antibody as prepared above, buffer, stabilizers, preservatives, and the substrates for the enzyme conjugate NAD and glucose 6 phosphate. Enzyme conjugate comprising compound (12-G6PDH) G6PDH was added into the conjugate reagent to prepare the enzyme conjugate reagent. The enzyme conjugate reagent consists of the conjugate, buffer, stabilizers and preservatives. Enzyme conjugate (12-G6PDH) was used with rabbit polyclonal antibody #11341 in examples below. This technique is generally applicable to produce polyclonal antibodies to diacetonefructose derivatives and assess their utility.
# The diacetonefructose derivative antibodies and enzyme conjugates may be advantageously used in a homogeneous assay format to detect topiramate in samples. An enzyme immunoassay or ARK Assay, which is a homogeneous enzyme immunoassay experiment, is performed to test the polyclonal antibodies prepared as in Example 17. The ARK Assay for topiramate is conducted using a liquid, ready-to-use, two-reagent kit. A clinical chemistry analyzer useful to set up the assay is HITACHI 917. The HITACHI 917 is an automated biochemistry analyser used by medical laboratories to process biological fluid specimens, such as urine, cerebrospinal fluid, and most commonly, blood. Manufactured by Boehringer Mannheim, the HITACHI 917 is a commonly used routine chemical bichromatic analyzer. Topiramate containing sample is incubated with antibody reagent followed by the addition of the enzyme conjugate reagent. The enzyme conjugate activity decreases upon binding to the antibody. The enzyme conjugate, which is not bound to the antibody, catalyzes the oxidation of glucose 6-phosphate (G6P). The oxidation of G6P is coupled with the reduction of NAD^+ to NADH, which can be measured at 340 nm. The change in the absorbance at 340 nm can be measured spectrophotometrically. The topiramate concentration in a specimen can be measured in terms of G6PDH activity. The increase in the rate at 340 nm is due to the formation of NADH and is proportional to the enzyme conjugate activity. An assay calibration curve is generated using topiramate spiked into negative calibrator matrix (See Example 19 below). The assay rate increases with increasing the concentration of drug in the sample.
# Topiramate was dissolved in methanol to give a stock solution of 1000 μg/mL. Pooled human serum was aliquoted in 10 mL portions. Topiramate stock solution was added to the aliquots of human serum in preparing a series of known concentrations of topiramate calibrators ranging from 0 to 60 μg/mL. Similarly, Quality Control samples were prepared (2.0, 10.0 and 40.0 μg/mL). Antibody Reagent was prepared by adding antibody […] to antibody/substrate diluent. The antibody/substrate reagent was assayed with Enzyme Conjugate Reagent (12-G6PDH). Calibration curves were generated on the HITACHI 917 automated clinical chemistry analyzer, as described in Example 18 by assaying each level in duplicate.
# [2] = tested on: antibodies raised with immunogens (10-KLH, 12-KLH, 12-L-KLH, 19-KLH, 22-KLH and 25-KLH); test: Enzyme-based assay format, reactivity of antibodies raised with the immunogens; format: binding
# Source text: All the prepared haptens have utility for KLH and G6PDH bio-conjugation. immunogens (10-KLH, 12-KLH, 12-L-KLH, 19-KLH, 22-KLH and 25-KLH) were used to raise antibodies.
# [3] = cited from earlier work
# serum proteins = conditions: cited from earlier work
# [4] = cited from earlier work; for mean topiramate serum concentration: Lhatoo et al. (2000); for topiramate concentrations: May et al. (2002)
# [5] = tested on: patients with drug refractory (mostly partial) epilepsy; conditions: Stephen et al. (2000), 170 patients, cited from earlier work
# [6] = dose escalation add-on studies, morning serum concentrations
smiles,measurement,setting,value
"CC1(C)O[C@@H]2[C@@H](CO[C@@]3(COS(N)(=O)=O)OC(C)(C)O[C@@H]23)O1 [Topiramate, 2,3:4,5-bis-O-(1-methylethylidene)-β-D-fructopyranose sulfamate]",Reaction Rate (mA/min) Average of Duplicates,[1]; topiramate calibrator 3.5 μg/mL in human serum,406.0 mA/min
same,Reaction Rate (mA/min) Average of Duplicates,[1]; topiramate calibrator 7.5 μg/mL in human serum,442.4 mA/min
same,Reaction Rate (mA/min) Average of Duplicates,[1]; topiramate calibrator 15.0 μg/mL in human serum,478.3 mA/min
same,Reaction Rate (mA/min) Average of Duplicates,[1]; topiramate calibrator 30.0 μg/mL in human serum,511.6 mA/min
same,Reaction Rate (mA/min) Average of Duplicates,[1]; topiramate calibrator 60.0 μg/mL in human serum,542.4 mA/min
same,reactivity of the antibodies,[2],good reactivity
same,change of serum topiramate concentrations,"[3]; clearance decreased by propranolol, amitriptyline, lithium, and sumatriptan",slightly increased
same,Tmax,[3]; following oral ingestion,2 to 4 h
same,bioavailability,[3]; following oral ingestion,81-95%
same,Vd,"[3]; human, in vivo",0.6 to 1 L/kg
same,fraction of the dose metabolized,"[3]; human, in vivo",Approximately 50%
same,serum half-life,"[3]; human, in vivo",20 to 30 h
same,half-life,[3]; patients co-prescribed enzyme-inducing AEDs,about 12 h
same,lowering of topiramate concentrations,[3]; with valproic acid,10-15%
same,bound to serum proteins,serum proteins,15%
same,serum concentrations at which optimal response is most likely,"[4]; Christensen et al. (2003), concentration-controlled trial",2000 to 10000 ng/mL
same,serum topiramate concentrations,"[4]; Johannessen et al. (2003), patients treated with therapeutic doses, most studies",5 to 20 mg/L
same,mean topiramate serum concentration,[4]; patients in whom topiramate was stopped because of adverse effects,6 mg/L
same,mean topiramate serum concentration,[4]; responders,7 mg/L
same,mean topiramate serum concentration,[4]; seizure-free patients,9 mg/L
same,topiramate concentrations,[4]; considerably higher doses (up to 2000 mg/day),≤ 27 mg/L
same,topiramate concentrations,[4]; doses of 125-400 mg in addition to other AEDs,2.4 to 8 mg/L
same,serum topiramate concentrations in patients with improvement (trend),"[4]; Penovich et al. (1997), compared with those without seizure reduction",> 10 mg/L
same,systemic topiramate concentrations,"[4]; considerably higher doses, up to 2000 mg",≤ 80 µmol·L
same,serum concentrations at which a reduction in seizure control was seen,[4]; [6],greater than 75 μmol/L
same,serum concentrations with significant increase in side effects,[4]; [6],> 60 µM
same,patients with favorable response,[5]; wide range of doses and serum concentrations,70%
same,patients becoming seizure-free,[5],23%
